Data published in patent EP1734031A1, “NOVEL 2-(ALPHA-N-PENTANONYL)BENZOETES, THEIR PREPARATION AND USE” (priority 2004, dated 2005).
Marks after values point to notes of the source that are not given here.

What was measured:
[1] = Stability to humidity (high humidity test, purity by HPLC); type: physicochemical; conditions: 10 days
[2] = test system: model rats of middle cerebral artery thrombosis (MCAT); test: Effects on cerebral infarct area of MCAT rats (TTC staining); type: in vivo, SD rats; conditions: for Cerebral infarct tissue weight/total brain weight: 24 hours after operation; for Inhibition (cerebral infarct): vs. model group; for cerebral infarct compared with the model group (in words): 50 mg/kg, P<0.05
[3] = test system: model rats of middle cerebral artery thrombosis (MCAT); test: Effects on neural symptoms of MCAT rats (behavioral score); type: in vivo, SD rats; conditions: for Scores 6 hours: 6 hours after operation; for Scores 6 hours / Scores 24 hours: full mark 4; for Scores 24 hours: 24 hours after operation
in vivo = conditions: both, ICR, mouse, po
[4] = Stability to light (purity by HPLC); conditions: light test, 10 days
Description: Tests were conducted for 10 days in accordance with the testing method as described in Pharmacopoeia of P.R. China, 2000 ed., appendix XIX C of part two, "Guideline for testing the stability of medicament: method for testing stability to light". The purity was determined in accordance with the test described in Pharmacopoeia of P.R. China, 2000 ed., appendix VD of part two, by using HPLC method, C18 column, mobile phase of acetonitrile:0.02M sodium dihydrogen phosphate = 40:60, detecting wavelength of 230 nm, flow rate of 1 ml/min.

[5] = Thermal stability (purity by HPLC); conditions: 10 days at 60°C
Description: Tests were conducted for 10 days at 60°C in accordance with the testing method as described in Pharmacopoeia of P.R. China, 2000 ed., appendix XIX C of part two, "Guideline for testing the stability of medicament: method for testing thermal stability". The purity was determined in accordance with the test described in Pharmacopoeia of P.R. China, 2000 ed., appendix VD of part two, by using HPLC method, C18 column, mobile phase of acetonitrile:0.02M sodium dihydrogen phosphate = 40:60, detecting wavelength of 230 nm, flow rate of 1 ml/min.

ICR mice = conditions: mouse, in vivo, po, 168 h
[6] = test system: thrombosis of artery-vein bypass in rats; test: Effects on thrombosis of artery-vein bypass in rats; type: in vivo, SD rats; conditions: for Dry-weight of thrombus / Wet-weight of thrombus: once per day for 3 days; for Inhibition (dry-weight of thrombus) / Inhibition (wet-weight of thrombus): vs. thrombus model group
[7] = 50 mg/kg by gavage, vs. model group
[8] = 100 mg/kg by gavage, vs. model group
[9] = 200 mg/kg by gavage, vs. model group

Row | SMILES | Cerebral infarct tissue weight/total brain weight ([2]; 50 mg/kg by gavage) [%] | Inhibition (cerebral infarct) ([2]; 50 mg/kg by gavage) [%] | Cerebral infarct tissue weight/total brain weight ([2]; 100 mg/kg by gavage) [%] | Inhibition (cerebral infarct) ([2]; 100 mg/kg by gavage) [%] | Cerebral infarct tissue weight/total brain weight ([2]; 200 mg/kg by gavage) [%] | Inhibition (cerebral infarct) ([2]; 200 mg/kg by gavage) [%] | Scores 6 hours ([3]; 50 mg/kg by gavage) | Scores 24 hours ([3]; 50 mg/kg by gavage) | % inhibition at hour 24 [3, 7] [%] | Scores 6 hours ([3]; 100 mg/kg by gavage) | Scores 24 hours ([3]; 100 mg/kg by gavage) | % inhibition at hour 24 [3, 8] [%] | Scores 6 hours ([3]; 200 mg/kg by gavage) | Scores 24 hours ([3]; 200 mg/kg by gavage) | % inhibition at hour 24 [3, 9] [%] | decomposed product (stability to light) [4] | cerebral infarct compared with the model group (in words) [2] | decomposed product (thermal stability) [5] | LD50 value (ICR mice) [mg/kg] | Dry-weight of thrombus ([6]; 50 mg/kg by gavage) [mg] | other results
1 | CCCCC(O)c1ccccc1C(=O)[O-].[K+] (stereo not drawn) [Potassium 2-(α-hydroxypentyl)benzoate] | 6.16±2.46 | 16.87 | 5.73±2.20 | 27.83 | 5.37±2.00 | 29.43 | 3.50±0.71 | 3.30±0.48 | 9.34 | 3.55±0.52 | 3.00±0.89 | 19.57 | 3.45±0.52 | 2.73±0.79 | 26.81 |  |  |  |  |  | decomposition after absorbing moisture [1]: highly decomposed; LD50 at 7 days (in vivo): 1230 mg/kg
2 | CCCCC(=O)c1ccccc1C(=O)O.CCCCC(=O)c1ccccc1C(=O)O.c1ccc(CNCCNCc2ccccc2)cc1 [2-(α-n-pentanonyl)benzoate of N,N'-dibenzylethylene diamine] | 5.14±2.17 | 30.63 | 4.68±1.69 | 41.06 | 4.60±1.26 | 39.55 | 3.45±0.69 | 2.91±0.70 |  | 3.45±0.52 | 2.36±0.67 |  | 3.27±0.79 | 2.55±0.52 |  | no decomposed product | significantly reduced | no decomposed product | 3078.8 | 39.0 ± 10.8 | Wet-weight of thrombus ([6]; 50 mg/kg by gavage): 207.1 ± 45.3 mg; Inhibition (dry-weight of thrombus) ([6]; 50 mg/kg): 23.98%; Inhibition (wet-weight of thrombus) ([6]; 50 mg/kg): 20.10%; Dry-weight of thrombus ([6]; 100 mg/kg by gavage): 29.9 ± 13.6 mg; Wet-weight of thrombus ([6]; 100 mg/kg by gavage): 157.9 ± 67.9 mg; Inhibition (dry-weight of thrombus) ([6]; 100 mg/kg): 41.72%; Inhibition (wet-weight of thrombus) ([6]; 100 mg/kg): 39.08%; Dry-weight of thrombus ([6]; 200 mg/kg by gavage): 32.3 ± 12.5 mg; Wet-weight of thrombus ([6]; 200 mg/kg by gavage): 191.7 ± 34.8 mg; Inhibition (dry-weight of thrombus) ([6]; 200 mg/kg): 37.04%; Inhibition (wet-weight of thrombus) ([6]; 200 mg/kg): 26.04%
3 | CCCCC(=O)c1ccccc1C(=O)O [Calcium 2-(α-n-pentanonyl)benzoate, calcium 2-(α-n-pentanonyl)benzoate] | 5.01±1.79 | 32.39 | 5.23±2.04 | 34.13 | 4.65±2.13 | 38.90 | 3.18±0.60 | 2.73±0.65**^,s | 25.00 | 3.40±0.52 | 2.90±0.57 | 22.25 | 3.27±0.79 | 2.45±0.82 | 34.32 | no decomposed product | significantly reduced | no decomposed product | 2683.8 | 40.2 ± 18.0 | Wet-weight of thrombus ([6]; 50 mg/kg by gavage): 199.8 ± 30.4 mg; Inhibition (dry-weight of thrombus) ([6]; 50 mg/kg): 21.64%; Inhibition (wet-weight of thrombus) ([6]; 50 mg/kg): 22.92%; Dry-weight of thrombus ([6]; 100 mg/kg by gavage): 34.2 ± 13.1 mg; Wet-weight of thrombus ([6]; 100 mg/kg by gavage): 189.8 ± 52.3 mg; Inhibition (dry-weight of thrombus) ([6]; 100 mg/kg): 33.33%; Inhibition (wet-weight of thrombus) ([6]; 100 mg/kg): 26.77%; Dry-weight of thrombus ([6]; 200 mg/kg by gavage): 30.4 ± 13.9 mg; Wet-weight of thrombus ([6]; 200 mg/kg by gavage): 163.2 ± 64.4 mg; Inhibition (dry-weight of thrombus) ([6]; 200 mg/kg): 40.74%; Inhibition (wet-weight of thrombus) ([6]; 200 mg/kg): 37.04%; alleviation on neural symptoms at 24 hours after the operation (in words) ([3]; 50 mg/kg, vs. model group, P<0.01 or P<0.05): significantly alleviation
